Source: US6426197B1, “Polynucleotides encoding a human potassium channel” (SmithKline Beecham, P.L.C., priority 1998, dated 2002)

Target: T1, h-TRAAK (Homo sapiens, UniProt Q9NYG8)
T1 construct: expressed in transfected cells; host or cells: HEK 293
T1 sequence (Q9NYG8 1-393): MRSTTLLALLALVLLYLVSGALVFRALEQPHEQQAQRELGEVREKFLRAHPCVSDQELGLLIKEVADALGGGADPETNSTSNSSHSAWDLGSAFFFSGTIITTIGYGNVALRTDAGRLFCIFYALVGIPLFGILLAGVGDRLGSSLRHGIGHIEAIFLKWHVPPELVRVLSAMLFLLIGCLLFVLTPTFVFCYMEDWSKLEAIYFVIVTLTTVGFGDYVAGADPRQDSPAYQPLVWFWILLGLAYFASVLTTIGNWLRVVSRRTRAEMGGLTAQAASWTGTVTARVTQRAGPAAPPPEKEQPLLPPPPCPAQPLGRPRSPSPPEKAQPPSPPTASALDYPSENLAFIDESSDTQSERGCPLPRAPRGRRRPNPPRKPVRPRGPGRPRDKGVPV
Assay: Whole cell patch clamp recordings in HEK 293 cells transiently transfected with h-TRAAK
Format: cell-based
Source text: Electrophysiological Recordings in HEK293 Cells
For whole cell patch clamp recordings cells were placed on the stage of an inverted microscope and continuously superfused with a solution containing, in mM: NaCl 150, KCl 5, HEPES 10, CaCl2 1 and MgCl2 3; pH with NaOH. The patch pipette solution contained in mM: KCl 150, HEPES 10, MgCl2 3 and EGTA 5; pH7.2 with KOH. When cells were voltage clamped at a test potential of −80 mV depolarising pulses elicited rapidly activating, non-inactivating outward currents. At a test potential of +10 mV these currents were considerably greater in amplitude, 300.4 pA±92.9 (n=5) than those recorded from untransfected wild type HEK 293 cells, 94.8 pA +12.6 (n=15). h-TRAAK-mediated currents were potentiated by arachidonic acid over a voltage range from −140 to +60 mV.

CCCCC/C=C\C/C=C\C/C=C\C/C=C\CCCC(=O)O [arachidonic acid]
fold increase in h-TRAAK-mediated current (10 μM arachidonic acid, test potential of +10 mV): 7.9 ±3.0 fold | effect on h-TRAAK-mediated currents (voltage range from −140 to +60 mV): potentiated
